{"source": "patent US11306095B2", "about": "(EAST CHINA UNIVERSITY OF SCIENCE AND TECHNOLOGY, priority 2015, dated 2022)", "key": {"[1]": {"assay": "Determination of solubility in water (PBS 20 mM, pH 6.8)", "type": "physicochemical", "conditions": "PBS buffer, aqueous buffer, thermodynamic from solid; pH 6.8, 20 mM PBS; read-out: Solubility (pH 6.8, g/mL)", "how_it_was_run": "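Compound suspension filtered (0.22 μm PVDF), diluted in 50% methanol/50% PBS, absorbance read by UV spectrophotometry. Solubility calculated from a standard curve of 0.01–0.05 mg/mL methanol-derived solutions (r > 0.998).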"}, "H1975 cell xenograft": {"tested_on": "H1975 cell xenograft", "assay": "H1975 cell xenograft tumor assay", "type": "in vivo, BALB/c nude mice", "description": "Purpose of experiment: H1975 transplanted BALB/c nude mice were orally administered (PO) with a substance to be tested for 14 consecutive days. The body weight and tumor size of nude mice were observed and recorded.\nH1975 cells were obtained from Shanghai Institute of Materia Medica. […] Cells were fluid-changed and passaged for one time every 2-3 days and expanded. When the desired amount of cells was achieved, transplantation of cells was performed.\n(§1) 40 male BALB/c nude mice, aged 4-5 weeks and weighing 17-23 g, were purchased from Shanghai Bikai, placed in an animal room environment for 2-3 days, and then seeded with cells. Cell suspension was subcutaneously injected at forelimb of the nude mouse rich in capillaries, and each mouse was injected with 0.1 mL of cell suspension.\n(§2) Appropriate amount of a substance to be tested was weighed, suspended in 14 mL of DMSO-PEG400 saline solution (DMSO:PEG400:saline=1:30:69) respectively, formulated according to the following table, suspended or dissolved by ultrasonic wave, filled into vials and sealed, and reserved in a 4° C. refrigerator for further use.\n(§3) The length and width of a tumor and body weight of a mouse were recorded at least twice a week. The tumor size is calculated as V=0.5*length*width*width."}, "[2]": {"tested_on": "A431 cell xenograft (EGFR wild-type)", "assay": "A431 cell xenograft tumor assay", "type": "in vivo, BALB/c nude mice", "conditions": "25 mg/kg, oral, 14 days", "description": "Purpose of experiment: A431 xenograft tumor BALB/c nude mice were orally administered (PO) with a substance to be tested for 14 consecutive days. The body weight and tumor size of nude mice were observed and recorded.\nCells were fluid-changed and passaged for one time every 2-3 days and expanded. When the desired amount of cells was achieved, transplantation of cells was performed.\nas §1\nas §2, with “sealed” for “sealed,”\nas §3"}, "[3]": {"tested_on": "H1975 cells (EGFR L858R/T790M)", "assay": "Inhibitory activity on cell proliferation, H1975", "type": "cell-based", "conditions": "Homo sapiens, NCI-H1975; H1975, 72 hours; read-out: Inhibitory activity on proliferation of cells (IC50, μM) H1975"}, "EGFR-L858R/T790M": {"biological_target": "T1, EGFR-L858R/T790M (Homo sapiens, UniProt P00533, L858R/T790M)", "T1 construct": "purchased Invitrogen PV4879", "T1 sequence (P00533 25-1210 T790M/L858R)": "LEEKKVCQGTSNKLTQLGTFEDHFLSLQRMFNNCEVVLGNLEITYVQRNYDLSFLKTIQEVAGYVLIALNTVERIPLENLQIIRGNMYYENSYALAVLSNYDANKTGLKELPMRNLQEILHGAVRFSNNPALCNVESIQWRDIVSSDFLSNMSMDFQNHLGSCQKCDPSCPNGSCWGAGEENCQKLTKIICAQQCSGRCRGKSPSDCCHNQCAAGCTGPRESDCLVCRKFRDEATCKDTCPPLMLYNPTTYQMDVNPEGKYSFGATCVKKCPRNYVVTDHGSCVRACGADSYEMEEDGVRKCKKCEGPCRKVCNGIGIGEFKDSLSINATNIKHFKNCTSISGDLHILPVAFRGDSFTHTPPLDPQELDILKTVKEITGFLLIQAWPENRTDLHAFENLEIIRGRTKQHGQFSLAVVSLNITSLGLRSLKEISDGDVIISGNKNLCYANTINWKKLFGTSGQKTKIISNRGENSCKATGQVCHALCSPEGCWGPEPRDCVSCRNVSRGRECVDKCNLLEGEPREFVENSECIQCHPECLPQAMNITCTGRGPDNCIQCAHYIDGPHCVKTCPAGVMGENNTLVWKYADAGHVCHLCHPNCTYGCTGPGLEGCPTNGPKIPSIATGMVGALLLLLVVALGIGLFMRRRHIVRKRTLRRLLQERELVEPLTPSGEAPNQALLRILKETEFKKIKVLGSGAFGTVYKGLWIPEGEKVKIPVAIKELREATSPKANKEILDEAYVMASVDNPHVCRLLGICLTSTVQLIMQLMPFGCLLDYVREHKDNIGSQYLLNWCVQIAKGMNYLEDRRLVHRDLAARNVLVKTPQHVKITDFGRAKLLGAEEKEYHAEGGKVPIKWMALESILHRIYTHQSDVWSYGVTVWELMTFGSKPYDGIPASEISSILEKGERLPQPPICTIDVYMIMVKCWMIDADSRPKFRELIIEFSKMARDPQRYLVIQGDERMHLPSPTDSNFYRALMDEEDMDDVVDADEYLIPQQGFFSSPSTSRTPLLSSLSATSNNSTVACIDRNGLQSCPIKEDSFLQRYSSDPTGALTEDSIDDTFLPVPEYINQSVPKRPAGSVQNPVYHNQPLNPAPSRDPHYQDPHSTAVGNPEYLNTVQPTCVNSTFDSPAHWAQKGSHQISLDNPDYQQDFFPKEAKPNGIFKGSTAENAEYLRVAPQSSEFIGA", "assay": "Kinase activity test (FRET), EGFR T790M/L858R", "type": "biochemical", "conditions": "EGFR T790M/L858R; read-out: Inhibitory activity of EGFR on kinase (IC50, nM) T790M/L858R", "how_it_was_run": "(§4)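 FRET assay with coumarin/fluorescein-labelled poly(Glu, Tyr)4:1 peptide and ATP, compounds at 5.1×10^−11 to 1.0×10^−6 mol/L final. Kinase reaction 1.5 h at room temperature, then 1 h development cleaving unphosphorylated peptide.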"}, "Wild type EGFR": {"biological_target": "T2, Wild type EGFR (Homo sapiens, UniProt P00533)", "T2 construct": "purchased Invitrogen PV3872", "T2 sequence (P00533 25-1210)": "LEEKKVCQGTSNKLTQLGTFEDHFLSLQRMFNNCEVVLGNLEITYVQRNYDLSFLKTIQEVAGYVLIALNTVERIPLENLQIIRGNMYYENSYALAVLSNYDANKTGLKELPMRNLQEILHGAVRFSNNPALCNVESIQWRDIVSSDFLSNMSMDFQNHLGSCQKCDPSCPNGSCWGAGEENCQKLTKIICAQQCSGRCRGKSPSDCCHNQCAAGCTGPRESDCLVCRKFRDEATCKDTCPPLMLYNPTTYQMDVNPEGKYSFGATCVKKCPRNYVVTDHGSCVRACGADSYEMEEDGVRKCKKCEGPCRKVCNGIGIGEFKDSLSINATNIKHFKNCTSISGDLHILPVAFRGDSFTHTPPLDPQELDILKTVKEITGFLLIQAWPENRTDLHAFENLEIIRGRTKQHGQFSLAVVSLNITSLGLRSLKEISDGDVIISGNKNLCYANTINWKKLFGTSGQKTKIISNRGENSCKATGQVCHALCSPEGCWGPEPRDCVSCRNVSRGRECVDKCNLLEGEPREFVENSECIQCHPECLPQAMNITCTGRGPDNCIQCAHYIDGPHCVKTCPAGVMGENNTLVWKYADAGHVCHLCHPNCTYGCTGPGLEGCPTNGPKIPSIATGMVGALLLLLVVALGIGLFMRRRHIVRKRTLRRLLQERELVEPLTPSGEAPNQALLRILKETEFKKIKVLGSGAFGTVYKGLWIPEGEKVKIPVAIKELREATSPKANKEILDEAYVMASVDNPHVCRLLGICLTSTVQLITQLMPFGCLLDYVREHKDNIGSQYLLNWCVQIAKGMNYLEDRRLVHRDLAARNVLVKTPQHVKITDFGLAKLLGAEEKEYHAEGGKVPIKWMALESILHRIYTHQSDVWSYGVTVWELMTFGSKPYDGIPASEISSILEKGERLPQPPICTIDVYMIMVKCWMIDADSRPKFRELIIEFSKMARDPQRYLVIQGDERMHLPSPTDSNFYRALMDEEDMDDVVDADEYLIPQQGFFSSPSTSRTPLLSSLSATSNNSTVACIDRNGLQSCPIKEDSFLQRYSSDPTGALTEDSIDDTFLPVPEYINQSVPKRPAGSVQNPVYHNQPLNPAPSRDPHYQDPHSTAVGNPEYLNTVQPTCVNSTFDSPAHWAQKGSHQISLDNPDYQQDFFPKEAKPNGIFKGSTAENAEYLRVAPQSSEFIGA", "assay": "Kinase activity test (FRET), wild type EGFR", "type": "biochemical", "conditions": "wild type EGFR; read-out: Inhibitory activity of EGFR on kinase (IC50, nM) WT", "how_it_was_run": "as §4"}, "[4]": {"tested_on": "A431 cells (EGFR wild type)", "assay": "Inhibitory activity on cell proliferation, A431", "type": "cell-based", "conditions": "Homo sapiens, A-431; A431, 72 hours; read-out: Inhibitory activity on proliferation of cells (IC50, μM) A431"}, "[5]": {"assay": "Pathological analysis of tumor-bearing mice after 14 consecutive days of administration", "type": "in vivo"}}, "data": [{"smiles": "C=CC(=O)Nc1cccc(-n2c(=O)c(-c3ccccc3)nc3cnc(Nc4ccc(N5CCN(C)CC5)cc4OC)nc32)c1", "note": "[Compound 14, N-(3-(2-((2-methoxy-4-(4-methyl-1-piperazinyl)phenyl)amino)-7-oxo-6-phenyl-8(7H)-pteridinyl)phenyl)acrylamide]", "values": [{"measurement": "solubility", "setting": "[1]", "result": 9.7, "unit": "µg/mL"}, {"measurement": "effect on tumor size in H1975 xenograft (FIG. 2)", "setting": "H1975 cell xenograft; 25 mg/kg", "result": "effectively reduce the size of a tumor"}, {"measurement": "efficacy in H1975 xenograft (FIG. 2), 25 mg/kg versus AZD9291 25 mg/kg", "setting": "H1975 cell xenograft; 25 mg/kg", "result": "comparable efficacy to AZD9291"}, {"measurement": "tumor recurrence after administration was stopped for 1 month (FIG. 2)", "setting": "H1975 cell xenograft; 25 mg/kg, H1975 xenograft", "result": "the tumor did not recur"}, {"measurement": "efficacy in H1975 xenograft (FIG. 2), 10 mg/kg versus CO-1686 50 mg/kg", "setting": "H1975 cell xenograft; Compound 14 10 mg/kg, CO-1686 50 mg/kg", "result": "better efficacy over CO-1686"}, {"measurement": "efficacy in H1975 cell xenograft model (FIG. 1)", "setting": "H1975 cell xenograft; orally administered for 14 days, versus CO-1686", "result": "superior efficacy over CO-1686"}, {"measurement": "tumor size in EGFR wild-type A431 cell xenograft model (FIG. 3)", "setting": "[2]", "result": "the size of the tumor did not substantially change"}, {"measurement": "selectivity on wild-type EGFR in A431 xenograft (FIG. 3)", "setting": "[2]; versus afatinib", "result": "significantly better than afatinib"}, {"measurement": "IC50", "setting": "[3]", "result": 0.014, "unit": "µM"}, {"measurement": "IC50", "setting": "EGFR-L858R/T790M", "result": 1, "unit": "nM"}, {"measurement": "IC50", "setting": "Wild type EGFR", "result": 10.5, "unit": "nM"}, {"measurement": "IC50", "setting": "[4]", "result": 4.18, "unit": "µM"}, {"measurement": "pathology, brain tissue (FIG. 5E)", "setting": "[5]", "result": "normal tissue structure, no pathological change"}, {"measurement": "pathology, heart tissue (FIG. 5G)", "setting": "[5]", "result": "moderate expansion of myocardial fiber gap in the tissue"}, {"measurement": "pathology, intestine tissue (FIG. 5A)", "setting": "[5]", "result": "mucosal inflammatory cell focal infiltration"}, {"measurement": "pathology, kidney tissue (FIG. 5F)", "setting": "[5]", "result": "1) a part of glomerular wall in the tissue thickening, as shown by the black arrow, and 2) no significant abnormality"}, {"measurement": "pathology, liver tissue (FIG. 5C)", "setting": "[5]", "result": "1) the extensive hepatic sinusoids dilatation in the entire tissue, as indicated by the black arrow, and 2) visible mild fatty degeneration in liver tissue, with small droplets of lipid"}, {"measurement": "pathology, lung tissue (FIG. 5B)", "setting": "[5]", "result": "normal tissue structure, no pathological change"}, {"measurement": "pathology, tumor tissue (FIG. 5D)", "setting": "[5]", "result": "moderate necrosis of cells in the entire tissues"}]}]}
